Reference: the supplement of paper PMC8988213

Tests used:
[1] = system: ID188 patient-derived PDAC 2D line (pre-FOLFIRINOX); assay: normalised area under dose-response curve (viability relative to DMSO, 7 doses up to 10 µM) (fraction (AUC)); higher = less sensitive (more viability retained); conditions: 72 h; top dose: 10 µM
Protocol: (§1)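 Patient-derived 2D PDAC cells (ID188 pre-FOLFIRINOX, passage 5+27; ID211 post-FOLFIRINOX, passage 9+11), 1,500-3,000 cells/well in 96-well plates, were treated with a 415-compound Selleck library in seven concentrations (3-fold dilution series, top 10 µM) for 72 h. Viability was read by CellTiter-Glo ATP luminescence, normalised to the DMSO control, and the area under the dose-response curve was computed with the GRmetrics R package; a lower AUC means higher sensitivity.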

[2] = system: ID211 patient-derived PDAC 2D line (post-FOLFIRINOX); assay: as above; conditions: 72 h; top dose: 10 µM
Protocol: as §1

Structure (SMILES) | normalised area under dose-response curve [1] | normalised area under dose-response curve [2]
CC(=O)Nc1cccc(-n2c(=O)n(C3CC3)c(=O)c3c(Nc4ccc(I)cc4F)n(C)c(=O)c(C)c32)c1 | 0.553 | 0.197
CC(C)(C)Cn1c(N)nc2ccc(-c3[nH]c(C(C)(C)C)nc3-c3ccc(F)cc3)nc21 | 0.992 | 0.862
CC(C)Nc1cc(-c2c[nH]c(C(=O)N[C@H](CO)c3cccc(Cl)c3)c2)c(Cl)cn1 | 0.881 | 0.687
CCNC(=O)C#Cc1ccc2c(C(=Nc3ccc(CN(C)C)cc3)c3ccccc3)c(O)[nH]c2c1 | 0.621 | 0.264
CCOc1ccn(-c2ccc(F)cc2)c(=O)c1C(=O)Nc1ccc(Oc2ccnc(N)c2Cl)c(F)c1 | 0.882 | 0.945
CCc1cncnc1N1CCN(Cc2nc3ccc(C(F)(F)F)cc3[nH]2)CC1 | 0.92 | 0.936
CCn1c(=O)c(-c2cc[nH]n2)cc2c(C)nc(N)nc21 | 0.814 | 0.792
CN(C(=O)c1ccc(F)cc1C(F)(F)F)C1CCN(c2nnc(-c3ccnn3C)c3ccccc23)CC1 | 0.939 | 0.855
CN(C)CC#Cc1ccc(OCCCc2sc(N3CCc4cccc(C(=O)Nc5nc6ccccc6s5)c4C3)nc2C(=O)O)c(F)c1 | 0.789 | 0.592
CN(C)Cc1c(C(=O)NCCOc2ccc(C(=O)NO)cc2)oc2ccccc12 | 0.733 | 0.748
CNC(=O)c1ccc(-c2cnc3ncc(Cc4ccc5ncccc5c4)n3n2)cc1F | 0.956 | 0.855
CNS(=O)(=O)Nc1nccc(Cc2c(C)c3ccc(Oc4ncccn4)cc3oc2=O)c1F | 0.679 | 0.409
COCCOc1ccc2c(c1)ncn2-c1ccc2cccc(N3CCC(N)CC3)c2n1 | 0.974 | 1.03
COc1cc(OC)c(/C=C/S(=O)(=O)Cc2ccc(OC)c(NCC(=O)O)c2)c(OC)c1 | 0.746 | 0.557
COc1cc2ncnc(Oc3cccc(NC(=O)Nc4cc(C(C)(C)C(F)(F)F)on4)c3)c2cc1OC | 0.948 | 0.832
COc1ccccc1S(=O)(=O)Nc1ccc2c(c1)CN(C)C(=O)N2 | 0.921 | 0.753
C[C@@H](C(=O)Nc1ccc(Cl)cc1)C1CCC(c2ccnc3ccc(F)cc23)CC1 (some centres not stated) | 0.882 | 0.863
C[C@@H](N)[C@H]1CC[C@H](C(=O)Nc2ccncc2)CC1 | 0.941 | 0.922
C[C@@H]1CCN(C(=O)CC#N)C[C@@H]1N(C)c1ncnc2[nH]ccc12 | 0.759 | 0.881
Cc1cc2c(F)c(Oc3ncnn4cc(OC[C@@H](C)O)c(C)c34)ccc2[nH]1 | 0.918 | 0.813
Cc1ccc(C(=O)N(CCCN)[C@@H](c2oc3cc(Cl)ccc3c(=O)c2Cc2ccccc2)C(C)C)cc1 | 0.51 | 0.708
Cc1ccc(C(=O)Nc2ccc(CN3CCN(C)CC3)c(C(F)(F)F)c2)cc1C#Cc1cnc2cccnn12 | 0.782 | 0.696
Cc1ccc(S(=O)(=O)Cc2nc(-c3ccc(C(=O)NCc4cccnc4)cc3)oc2C)cc1 | 0.358 | 0.275

Structure (SMILES) | normalised area under dose-response curve [1] | normalised area under dose-response curve [2]
Cc1ccc2nc(NCCN)c3ncc(C)n3c2c1 | 0.853 | 0.857
Cc1cnc(NC(=O)Nc2cc(Br)c(C)cc2OC[C@@H]2CNCCO2)cn1 | 0.731 | 0.869
Cc1nn(C)c(COc2ccc(N3CCN(S(=O)(=O)N(C)C)CC3)cc2)c1-c1cccc2c(CCCOc3cccc4ccccc34)c(C(=O)O)n(CCN3CCOCC3)c12 | 0.98 | 0.938
Cn1cc(C2=C(c3ccc(Cl)cc3Cl)C(=O)NC2=O)c2ccccc21 | 0.813 | 0.787
Cn1cnc2c(F)c(Nc3ccc(Br)cc3F)c(C(=O)NOCCO)cc21 | 0.732 | 0.457
Cn1ncc(Cl)c1-c1cc(C(=O)N[C@H](CN)Cc2ccc(F)c(F)c2)oc1Cl | 0.805 | 0.789
N#CC[C@H](C1CCCC1)n1cc(-c2ncnc3[nH]ccc23)cn1 | 0.945 | 0.892
N#Cc1c(O)c2c(-c3ccc(-c4ccccc4O)cc3)csc2[nH]c1=O | 0.977 | 0.782
NC(=O)[C@@H](CCC(F)(F)F)N(Cc1ccc(-c2ncon2)cc1F)S(=O)(=O)c1ccc(Cl)cc1 | 0.882 | 0.77
NC[C@@](O)(c1ccc(Cl)cc1)c1ccc(-c2cn[nH]c2)cc1 | 1.03 | 0.981
Nc1nc2c(cnn2CCc2ccccc2)c2nc(-c3ccco3)nn12 | 0.94 | 0.905
Nc1nccc(Oc2ccc(NC(=O)c3c[nH]cc(-c4ccc(F)cc4)c3=O)cc2F)c1Cl | 0.939 | 0.911
Nc1ncnc2n[nH]c(Nc3ccc(F)cc3)c12 | 0.947 | 0.864
O=C(NNc1ccccc1)c1ccncc1 | 0.961 | 0.899
O=C(Oc1cc(S(=O)(=O)c2ccccc2)ccc1[N+](=O)[O-])c1ccc(Cl)cc1 | 0.959 | 0.869
O=C1NCCCc2c1oc1ccc(O)cc21 | 0.904 | 0.878
O=S(=O)(N=Cc1c(O)ccc2ccccc12)c1cccs1 | 0.913 | 0.941
O=c1[nH]c(C2CCCN2)nc2c1oc1ccc(Cl)cc12 (configuration not stated) | 0.916 | 0.897
OCc1ccc(-c2ccc(-c3ccc(CO)s3)o2)s1 | 0.917 | 0.896
Oc1c2ccccc2c2c3c(cccc13)N=N2 | 0.881 | 1.04
Oc1ccc(-c2nc(-c3ccc(F)cc3)c(-c3ccncc3)[nH]2)cc1 | 0.95 | 1
O=C(O)C(Cc1ccccc1[N+](=O)[O-])=NNc1nc(-c2ccc(Cl)c(Cl)c2)cs1 (mixture of isomers) [4EGI-1] | 0.549 | 0.889
Cc1nnc(C(C)C)n1C1C[C@H]2CC[C@@H](C1)N2CC[C@H](NC(=O)C1CCC(F)(F)CC1)c1ccccc1 (stereo in doubt) [Maraviroc] | 1 | 0.865
